One experiment deals with T1, androgen receptor (Homo sapiens, UniProt P10275).
T1 construct: endogenous in cells; host or cells: unnamed cells (cytosol fraction)
T1 sequence (P10275 1-920): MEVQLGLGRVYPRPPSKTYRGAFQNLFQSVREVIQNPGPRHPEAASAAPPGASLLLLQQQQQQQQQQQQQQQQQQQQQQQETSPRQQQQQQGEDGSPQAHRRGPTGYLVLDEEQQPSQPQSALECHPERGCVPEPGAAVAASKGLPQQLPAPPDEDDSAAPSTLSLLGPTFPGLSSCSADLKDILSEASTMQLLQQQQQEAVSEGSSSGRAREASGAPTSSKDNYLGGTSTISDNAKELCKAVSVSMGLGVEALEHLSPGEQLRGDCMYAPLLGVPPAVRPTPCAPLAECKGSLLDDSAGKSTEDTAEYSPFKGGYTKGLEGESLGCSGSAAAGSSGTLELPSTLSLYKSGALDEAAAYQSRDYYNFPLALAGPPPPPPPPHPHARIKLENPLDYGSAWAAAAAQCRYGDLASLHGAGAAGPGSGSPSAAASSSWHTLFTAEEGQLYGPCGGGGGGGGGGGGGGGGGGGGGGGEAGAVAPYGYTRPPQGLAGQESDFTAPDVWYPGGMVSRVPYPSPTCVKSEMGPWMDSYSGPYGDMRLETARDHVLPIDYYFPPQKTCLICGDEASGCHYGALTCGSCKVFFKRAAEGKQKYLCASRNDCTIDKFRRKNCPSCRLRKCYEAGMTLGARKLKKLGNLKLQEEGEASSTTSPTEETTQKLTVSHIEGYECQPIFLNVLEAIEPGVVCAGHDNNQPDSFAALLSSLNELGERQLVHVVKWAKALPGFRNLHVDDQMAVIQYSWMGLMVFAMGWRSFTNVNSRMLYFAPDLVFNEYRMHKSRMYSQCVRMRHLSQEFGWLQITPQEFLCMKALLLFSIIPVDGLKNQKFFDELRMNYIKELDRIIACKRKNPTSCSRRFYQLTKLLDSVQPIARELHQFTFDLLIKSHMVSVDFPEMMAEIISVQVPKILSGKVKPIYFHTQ
Nature of the experiment: Binding affinity to androgen receptor ([3H]methyltrienolone radioligand, cell cytosol). The note with it: Table 6. As to the method:
Fractions of cell cytosol ([…]) were incubated for 24 hr at 4° C. with 1 nM [^3H]methyltrienolone in the absence or presence of the test compound in a buffer containing 25 mM Hepes-Tris (pH 7.4), 1 mM EDTA, 10 mM Na2MoO4, 2 mM DTT, 5 μM triamcinolone acetonide, and 10% glycerol. Nonspecific binding was determined in the presence of 1 μM testosterone. Following incubation, the samples were filtered rapidly under vacuum through glass fiber filters (GF/B, Packard) presoaked with 0.3% PEI and rinsed several times with ice-cold 50 mM Tris-HCl using a 96-sample cell harvester (Unifilter, Packard). The filters were dried then counted for radioactivity in a scintillation counter (Topcount, Packard) using a scintillation cocktail (Microscint 0, Packard). The results are expressed as a percent inhibition of the control radioligand specific binding. The standard reference compound is testosterone, which is tested in each experiment at several concentrations to obtain a competition curve from which its IC50 is calculated.

A further experiment addresses T2, CDK9 (Homo sapiens, UniProt P50750).
T2 construct: made in house; host or cells: E. coli BL21-derived host (T7 phage) or HEK-293 ('BEK-293' [sic])
In words: KdELECT binding assay, CDK9. The conditions noted are these: CDK9, Table 7. Put shortly:
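Phage-tagged or HEK-derived DNA-tagged kinases competed 1 h at room temperature against bead-immobilised biotinylated ligand in SeaBlock/PBS/Tween/DTT buffer, 0.9% DMSO final. Bound kinase eluted with 0.5 μM free ligand and quantified by qPCR; Kd from 11-point 3-fold dilution series.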

T2 sequence (P50750 whole entry): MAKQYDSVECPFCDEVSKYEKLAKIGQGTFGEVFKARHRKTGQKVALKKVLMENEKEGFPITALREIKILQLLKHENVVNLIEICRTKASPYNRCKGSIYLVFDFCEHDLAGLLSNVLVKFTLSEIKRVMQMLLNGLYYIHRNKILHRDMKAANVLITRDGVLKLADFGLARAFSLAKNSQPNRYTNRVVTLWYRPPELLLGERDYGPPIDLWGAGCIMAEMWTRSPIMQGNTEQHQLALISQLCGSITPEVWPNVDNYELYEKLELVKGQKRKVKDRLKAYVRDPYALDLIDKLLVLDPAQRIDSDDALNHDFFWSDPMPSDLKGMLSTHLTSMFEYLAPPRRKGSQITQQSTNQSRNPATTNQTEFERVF

Broadly, the Kd is the free concentration of one partner at which half of the binding sites on the other are occupied at equilibrium, for simple one-to-one binding. High values mean a looser complex, low ones a tighter complex. As to `CC1(C)[C@H](NC(=O)c2cnc(N3CCC(OCCNS(=O)(=O)c4ccc(Nc5ncc(Br)c(Nc6cccc(F)c6C(N)=O)n5)cc4)CC3)nc2)C(C)(C)[C@H]1Oc1ccc(C#N)c(Cl)c1` [Compound I-13, 2-(4-(2-((4-((5-bromo-4-((2-carbamoyl-3-fluorophenyl)amino)pyrimidin-2-yl)amino)phenyl)sulfonamido)ethoxy)piperidin-1-yl)-N-((1 r,3r)-3-(3-chloro-4-cyanophenoxy)-2,2,4,4-tetramethylcyclobutyl)pyrimidine-5-carboxamide], the values for the Kd at androgen receptor and at CDK9 were < 0.05 µM and > 2.5 µM, respectively.
Take `CCc1cnn2c(NCc3ccc(OCCOCCOCCOC4CCN(c5ccc(C(=O)N[C@H]6C(C)(C)[C@H](Oc7ccc(C#N)c(Cl)c7)C6(C)C)nn5)CC4)nc3)cc(N3CCCC[C@H]3CCO)nc12` [Compound I-44, N-((1r,3r)-3-(3-chloro-4-cyanophenoxy)-2,2,4,4-tetramethylcyclobutyl)-6-(4-(2-(2-(2-((5-(((3-ethyl-5-((S)-2-(2-hydroxyethyl)piperidin-1-yl)pyrazolo[1,5-a]pyrimidin-7-yl)amino)methyl)pyridin-2-yl)oxy)ethoxy)ethoxy)ethoxy)piperidin-1-yl)pyridazine-3-carboxamide]: the dissociation constant (Kd) at androgen receptor and at CDK9 was 0.05 to 0.5 µM in each case.
Consider `CCc1cnn2c(NCc3ccc(COCCN4CCN(CC5CCN(c6ncc(C(=O)N[C@H]7C(C)(C)[C@H](Oc8ccc(C#N)c(Cl)c8)C7(C)C)cn6)CC5)CC4)nc3)cc(N3CCCC[C@H]3CCO)nc12` [Compound I-42], for which the Kd at androgen receptor and on CDK9 was < 0.05 µM each time.
In the case of `CCc1cnn2c(NCc3ccc(OCCOCCOCCOC4CCN(c5ncc(C(=O)N[C@H]6C(C)(C)[C@H](Oc7ccc(C#N)c(Cl)c7)C6(C)C)cn5)CC4)nc3)cc(N3CCCC[C@H]3CCO)nc12` [Compound I-8], the Kd is < 0.05 µM on androgen receptor and 0.05 to 0.5 µM on CDK9.
For `CCc1cnn2c(NCc3ccc(OCCCCOCCOC4CCN(c5ncc(C(=O)N[C@H]6C(C)(C)[C@H](Oc7ccc(C#N)c(Cl)c7)C6(C)C)cn5)CC4)nc3)cc(N3CCCC[C@H]3CCO)nc12` [Compound I-34], in that order: < 0.05 µM and 0.5 to 2.5 µM.
For `CCc1cnn2c(NCc3ccc(OCCN(C)c4ncc(C(=O)N[C@H]5C(C)(C)[C@H](Oc6ccc(C#N)c(Cl)c6)C5(C)C)cn4)nc3)cc(N3CCCC[C@H]3CCO)nc12` [Compound I-1], in that order: < 0.05 µM and 0.05 to 0.5 µM.
For `CCc1cnn2c(NCc3ccc(OCCN4CCN(CC5CCN(c6ncc(C(=O)N[C@H]7C(C)(C)[C@H](Oc8ccc(C#N)c(Cl)c8)C7(C)C)cn6)CC5)CC4)nc3)cc(-c3ccccc3)nc12` [Compound I-47, N-((1r,3r)-3-(3-chloro-4-cyanophenoxy)-2,2,4,4-tetramethylcyclobutyl)-2-(4-((4-(2-((5-(((3-ethyl-5-phenylpyrazolo[1,5-a]pyrimidin-7-yl)amino)methyl)pyridin-2-yl)oxy)ethyl)piperazin-1-yl)methyl)piperidin-1-yl)pyrimidine-5-carboxamide], in that order: < 0.05 µM and > 2.5 µM.
As to `CCc1cnn2c(NCc3ccc(OCCOCCOCCOCCOCCOC4CCN(c5ncc(C(=O)N[C@H]6C(C)(C)[C@H](Oc7ccc(C#N)c(Cl)c7)C6(C)C)cn5)CC4)nc3)cc(N3CCCC[C@H]3CCO)nc12` [Compound I-9], the results for the Kd at androgen receptor and on CDK9 were < 0.05 µM and 0.5 to 2.5 µM, respectively.
Consider `CCc1cnn2c(NCc3ccc(OCCOC4CCN(c5ncc(C(=O)N[C@H]6C(C)(C)[C@H](Oc7ccc(C#N)c(Cl)c7)C6(C)C)cn5)CC4)nc3)cc(N3CCCC[C@H]3CCO)nc12` [Compound I-7, N-((1r,3r)-3-(3-chloro-4-cyanophenoxy)-2,2,4,4-tetramethylcyclobutyl)-2-(4-(2-((5-(((3-ethyl-5-((S)-2-(2-hydroxyethyl)piperidin-1-yl)pyrazolo[1,5-a]pyrimidin-7-yl)amino)methyl)pyridin-2-yl)oxy)ethoxy)piperidin-1-yl)pyrimidine-5-carboxamide], for which the Kd at androgen receptor is < 0.05 µM; at CDK9 it was 0.5 to 2.5 µM.

The record behind these values is patent US20260159520A1, “HETEROBIFUNCTIONAL COMPOUNDS AND METHODS OF TREATING DISEASE” (Halda Therapeutics OpCo, Inc., priority 2022, published 2026).
